Like-named read-outs stand apart in the source and are kept apart here.
Tests used:
MM1.S cells = test: CellTiter-Glo cell viability assay, MM1.S cells; assay type: cell-based, human; settings: for IC50: Homo sapiens
Experimental: Cell viability in the presence of varying concentrations of the above listed compounds at different time points was used to assess cytotoxicity and the effect of the compounds on cell proliferation.
(§1) Cell Viability Assay—Cell viability was measured by the CellTiter-GlO® cell viability assay from Promega (Madison, Wis.). The CellTiter-GlO® Luminescent Cell Viability Assay is a homogeneous method to determine the number of viable cells in culture based on quantitation of the ATP present, which signals the presence of metabolically active cells. Following treatment, CellTiter-GlO® is added to treatment wells and incubated at 37° C. luminescence values were measured at using a Molecular Devices Spectramax microplate reader
(§2) Single Agent Studies—Cells were grown to 70% confluency, trypsinized, counted, and seeded in 96 well flat-bottom plates at a final concentration of 2.5×10^3-5×10^3 cells/well (Day 0). Cells were allowed to incubate in growth media for 24 hours. Treatment with the test agents or standard agents began on Day 1 and continued for 72 hours. At the 72 hour timepoint, treatment containing media was removed. Viable cell numbers are quantified by the CellTiter-GlO® cell viability assay as described above. Results from these studies were used to calculate an IC50 value (concentration of drug that inhibits cell growth by 50 percent of control) for each compound.
Data Collection—For single agent and combination studies, data from each experiment was collected and expressed as % Cell Growth using the following calculation: Cell Growth=(ftest/fvehicle)×100
Where ftest is the fluorescence of the tested sample, and fvehicle is the fluorescence of the vehicle in which the drug is dissolved. Dose response graphs and IC50 values were generated using Prism 6 software (GraphPad) using the following equation: […]
Where X is the logarithm of concentration and Y is the response. Y starts at the Bottom and goes to Top with a sigmoid shape.
as §1, with “CellTiter-Glo®” for “CellTiter-GlO®”, “assay” for “assay from”, “reader.” for “reader”
as §2, with “agents” for “agents or standard agents”, “72-hour time point, treatment-containing” for “72 hour timepoint, treatment containing”, “CellTiter-Glo®” for “CellTiter-GlO®”, “above. Experiments were run with triplicate concentrations to determine growth inhibitory activity.” for “above.”
(§3) Data Collection—For single agent and combination studies, data from each experiment was collected and expressed as % Cell Growth using the following calculation: % Cell Growth=(ftest/fvehicle)×100
(§4) Where ftest is the luminescence of the tested sample, and fvehicle is the luminescence of the vehicle in which the drug is dissolved. Dose response graphs and IC50 values were generated using Prism 6 software (GraphPad).

[1] = test system: MM1.S human myeloma cells; test: Human MM1.S xenograft model, combination screening with pomalidomide/dexamethasone; assay type: in vivo, mice; settings: 100 mg/kg daily for 19 days oral plus pomalidomide 10 mg/kg / dexamethasone 0.3 mg/kg; compared to ID #2 or ID #3 combinations
Experimental: Group 3 (G3) was treated with Compound ID #1 at 100 mg/kg daily for 19 days. Group 4 (G4) was treated with Compound ID #2 at 100 mg/kg daily for 19 days. Group 5 (G5) was treated with Compound ID #3 at 100 mg/kg daily for 19 days. […] Vehicle and Compound ID #1, Compound ID #2 and Compound ID #3 were administered orally via oral gavage. Body weights and tumor measurements were collected twice weekly.

A2780 = test: CellTiter-Glo cell viability assay, A2780; assay type: cell-based; settings: Ovarian; for IC50: Homo sapiens, A2780, 72 hours
Experimental: as §1, with “CellTiter-Glo®” for “CellTiter-GlO®”, “assay” for “assay from”, “reader.” for “reader”
as §2, with “agents” for “agents or standard agents”, “72-hour time point, treatment-containing” for “72 hour timepoint, treatment containing”, “CellTiter-Glo®” for “CellTiter-GlO®”, “above. Experiments were run with triplicate concentrations to determine growth inhibitory activity.” for “above.”
as §3, §4

[2] = test system: MM1.S human myeloma cells; test: Human MM1.S xenograft model, single agent screening; assay type: in vivo, mice; settings: 100 mg/kg daily for 19 days, oral gavage; compared to Compound ID #2 or Compound ID #3
Experimental: In vivo efficacy studies of Compound ID #1, Compound ID #2, and Compound ID #3 were tested in human MM1.S xenograft model as shown in FIG. 1. […] Group 2 (G2) was treated with Compound ID #1 at 100 mg/kg daily for 19 days. Group 3 (G3) was treated with Compound ID #2 at 100 mg/kg daily for 19 days. Group 4 (G4) was treated with Compound ID #3 at 100 mg/kg daily for 19 days. Vehicle and Compound ID #1, Compound ID #2 and Compound ID #3 were administered orally via oral gavage. Body weights and tumor measurements were collected twice weekly.

Mino = test: CellTiter-Glo cell viability assay, Mino; assay type: cell-based; settings: Lymphoma; for IC50: Homo sapiens, 72 hours
Experimental: as §1, with “CellTiter-Glo®” for “CellTiter-GlO®”, “assay” for “assay from”, “reader.” for “reader”
as §2, with “agents” for “agents or standard agents”, “72-hour time point, treatment-containing” for “72 hour timepoint, treatment containing”, “CellTiter-Glo®” for “CellTiter-GlO®”, “above. Experiments were run with triplicate concentrations to determine growth inhibitory activity.” for “above.”
as §3, §4

[3] = MM1.S cells, 72 hours treatment, read-out: IC50 in MM1.S
[4] = Myeloma, MM1.S, 72 hours (Table 3), read-out: IC50

Row | IC50 (MM1.S cells; [3]) | IC50 (MM1.S cells; [4]) | IC50 (A2780) | SMILES | Improvement ID #1 over ID #3 Percent (MM1.S cells; Myeloma, MM1.S) | Improvement ID #1 over ID #3 fold (MM1.S cells; Myeloma, MM1.S) | anticancer activity (tumor volume) when combined with pomalidomide/dexamethasone [1] | Improvement ID #1 over ID #3 Percent (A2780; A2780) | Improvement ID #1 over ID #3 fold (A2780; A2780) | anticancer activity (tumor volume) [2] | IC50 (Mino) | Improvement ID #1 over ID #3 Percent (Mino) | Improvement ID #1 over ID #3 fold (Mino)
1 | 500 nM | 500 nM | 2030 nM | O=C(NO)c1ccc(Nc2nc3ccccc3n2CC2CCCCC2)cc1 [ID #1, 4-((1-(cyclohexylmethyl)-1H-benzo[d]imidazol-2-yl)amino)-N-hydroxybenzamide] | 76.08% | 4.18 fold | significantly superior anticancer activity | 63.62% | 2.75 fold | significantly superior anticancer activity | 1200 nM | 71.22% | 3.48 fold
2 | 2100 nM | 2090 nM | 5580 nM | O=C(NO)c1ccc(Nc2nc3ccccc3n2C2CCCCCC2)cc1 [ID #3, 4-((1-cycloheptyl-1H-benzo[d]imidazol-2-yl)amino)-N-hydroxybenzamide] |  |  |  |  |  |  | 4170 nM |  | 
